Values joined by “and” are separate entries in the source; they are usually repeats but may differ in a detail not shown here. Identical values can stand only once.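 A five-concentration, 48-hour dose response in 96-well plates underlies each endpoint, interpolated linearly between surrounding concentrations. GI50 = concentration required for 50% inhibition of growth. Definition used: TGI = concentration required for complete inhibition of growth.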
Experiments:
Assay in all cases: NCI anticancer screen, dose series, 48 h
ACHN renal = tested on: ACHN renal
COLO 205 colon = tested on: COLO 205 colon
HL-60(TB) leukemia = tested on: HL-60(TB) leukemia
HOP-62 NSCLC = tested on: HOP-62 NSCLC
LOX IMVI melanoma = tested on: LOX IMVI melanoma
M14 melanoma = tested on: M14 melanoma
MDA-MB-435 = tested on: MDA-MB-435
MDA-N = tested on: MDA-N
MOLT-4 leukemia = tested on: MOLT-4 leukemia
NCI-H226 lung = tested on: NCI-H226 lung
NCI-H23 lung = tested on: NCI-H23 lung
OVCAR-8 ovarian = tested on: OVCAR-8 ovarian
RPMI-8226 leukemia = tested on: RPMI-8226 leukemia
SNB-75 CNS = tested on: SNB-75 CNS
U251 CNS = tested on: U251 CNS
UACC-62 melanoma = tested on: UACC-62 melanoma
A498 renal = tested on: A498 renal

| SMILES | TGI (ACHN renal) | TGI (COLO 205 colon) [µM] | TGI (HL-60(TB) leukemia) [µM] | TGI (HOP-62 NSCLC) [µM] | TGI (LOX IMVI melanoma) [µM] | TGI (M14 melanoma) | TGI (MDA-MB-435) [µM] | TGI (MDA-N) [µM] | TGI (MOLT-4 leukemia) [µM] | TGI (NCI-H226 lung) [µM] | TGI (NCI-H23 lung) [µM] | TGI (OVCAR-8 ovarian) [µM] | TGI (RPMI-8226 leukemia) [µM] | TGI (SNB-75 CNS) [µM] | TGI (U251 CNS) [µM] | TGI (UACC-62 melanoma) [µM] | TGI (A498 renal) [µM] | GI50 (HL-60(TB) leukemia) [µM] | GI50 (LOX IMVI melanoma) [µM] |
| --- | --- | --- | --- | --- | --- | --- | --- | --- | --- | --- | --- | --- | --- | --- | --- | --- | --- | --- | --- |
| O=Cc1c2c(cc3c1CC1(C3)Cc3cc4c(c(C=O)c3C1)CCCC4)CCCC2 | > 31.6 µM | > 31.6 | > 100 | > 31.6 | > 31.6 | > 31.6 µM | > 31.6 | > 31.6 | 23.2 | > 31.6 | > 31.6 | > 31.6 | 30.3 | > 100 | > 31.6 | > 31.6 | – | – | – |
| CC(NC(=O)Cc1ccc(OP(=O)(OCc2ccc([N+](=O)[O-])o2)N(C)CCCCCl)cc1)c1ccc(OCC2CCCCC2)c(C(N)=O)c1 (configuration not stated) | 37.1 µM | 3.1 | 5.06 | 6.07 | 3.28 | 4.64 µM | 3.95 | 3.94 | 4.38 | 7.09 | 5.12 | 16 | 2.44 | – | 5.28 | 3.28 | 7.39 | – | – |
| Oc1cc(O)c2c(c1)O[C@H](c1ccc(O)c(O)c1)[C@@H](O)C2 | > 100 µM | > 100 | > 100 | > 100 | > 100 | > 100 µM | > 100 | > 100 | > 100 | > 100 | > 100 | > 100 | > 100 | > 100 | > 100 | – | – | – | – |
| c1ccc(CN2CCC(=NN3CCCCC3)CC2)cc1 | > 100 µM | 99.5 | 43.9 | > 100 | > 100 | > 100 µM | > 100 | > 100 | > 100 | > 100 | > 100 | > 100 | 66.3 | > 100 | > 100 | > 100 | – | – | – |
| COc1ccccc1N1CCN(CCCCNC(=O)c2ccc([N+](=O)[O-])o2)CC1 | 25.2 µM | 6.79 | 26.1 | 16.5 | 16.3 | 14.6 µM | 12 | 13.6 | > 62.5 | 29.4 | 15.9 | 45.6 | > 68.4 | – | 24.6 | 18.4 | 22.8 | – | – |
| Cc1ccc(C2(O)c3ccccc3C(=O)N(C)C2(O)c2ccc(C)cc2)cc1 (configuration not stated) | – | > 100 | 40.3 | 49.5 | > 100 | > 100 µM | > 100 | > 100 | 35.1 | – | > 100 | 90.9 | > 100 | – | 40.1 | > 100 | > 100 | – | – |
| N=c1c2sc3nc4ccccc4n3c2ncn1Cc1ccccc1 | > 100 µM | > 100 | – | > 100 | > 100 | > 100 µM | > 100 | > 100 | > 100 | > 100 | > 100 | > 100 | > 100 | > 100 | > 100 | > 100 | > 100 | – | – |
| CCOC(=O)Oc1cc2ccsc2c2c1c1ccccc1n2C(=O)OCC | 98.1 µM | > 100 | – | > 100 | > 100 | > 100 µM | > 100 | > 100 | > 100 | > 100 | > 100 | > 100 | > 100 | > 100 | > 100 | > 100 | 32.6 | – | – |
| C/C=C1\CC(C(=O)OCC)CCCCCCC1=O (configuration not stated) | > 100 µM | > 100 | > 100 | > 100 | > 100 | > 100 µM | > 100 | > 100 | > 100 | > 100 | > 100 | > 100 | – | > 100 | > 100 | > 100 | > 100 | – | – |
| O=[N+]([O-])c1cc(C2(N3CCCCC3)CCCCC2)sc1Br | 11.5 µM | 17.7 | 5.24 | 17.3 | 15.1 | 21.9 µM | 17 | 23.3 | 8.12 | 28.1 | 26.5 | 24 | 4.45 | – | 19.1 | 23.5 | 16.1 | – | – |
| CN1C(=O)c2ccccc2C(O)(c2ccccc2)C1(O)c1ccccc1 (configuration not stated) | > 100 µM | > 100 | – | > 100 | > 100 | > 100 µM | > 100 | > 100 | > 100 | > 100 | > 100 | > 100 | > 100 | > 100 | > 100 | > 100 | > 100 | – | – |
| CC(=N/NC(=S)N1CCCCCC1)/C(C)=N\NC(=S)N1CCCCCC1 | 9.67 µM | 38.5 | – | 15.2 | – | 57.9 µM | 3.41 | > 100 | > 100 | 9.23 | 12.6 | > 100 | > 100 | 10.9 | 5.73 | 12.7 | 3.47 | – | – |
| C/C=C/CC(C(=O)OCC)(N(C)C(=O)OC(C)(C)C)S(=O)(=O)c1ccc(C)cc1 (configuration not stated) | > 100 µM | > 100 | > 100 | > 100 | > 100 | > 100 µM | 83 | 48 | > 100 | > 100 | > 100 | > 100 | > 100 | – | > 100 | > 100 | > 100 | – | – |
| CC(=O)Nc1ccc(NC(=O)CC(=O)Nc2ccc(NC(C)=O)cc2)cc1 | > 100 µM | > 100 | > 100 | – | > 100 | > 100 µM | > 100 | > 100 | > 100 | > 100 | > 100 | > 100 | > 100 | – | > 100 | 23.4 | > 100 | – | – |
| CN(C(=O)[C@H](NC(=O)OCc1ccccc1)c1ccccc1)C1CCCCC1N1CCCC1 (some centres not stated) | > 100 µM | > 100 | – | > 100 | > 100 | 56.4 µM | > 100 | > 100 | > 100 | 78 | > 100 | > 100 | > 100 | > 100 | > 100 | > 100 | > 100 | – | – |
| CCN(CC)CCNc1c2ccccc2nc2cccc([N+](=O)[O-])c12 | 0.0184 µM and 0.0468 µM | 0.0176 | 0.175 | 0.0164 | – | 0.0188 µM and 0.0245 µM | 0.00323 | 0.00373 | 0.124 | 0.0553 | 0.0188 | 0.0382 | – | 0.0347 | 0.0775 | 0.0208 | 0.014 | 0.0104 | 0.0363 |
| COC(CNC(=O)CNC(=O)c1ccc(C(F)(F)F)cc1)OC | > 100 µM | > 100 | > 100 | – | – | > 100 µM | > 100 | > 100 | > 100 | > 100 | > 100 | > 100 | > 100 | > 100 | > 100 | > 100 | – | – | – |
| COc1ccc(-c2nc(-c3ccc(OC)cc3)n(-c3ccccc3)n2)cc1 | > 100 µM | > 100 | > 100 | > 100 | > 100 | > 100 µM | > 100 | > 100 | > 100 | > 100 | > 100 | > 100 | – | > 100 | > 100 | > 100 | > 100 | – | – |
| CCOC(=O)Cc1c(C)c2ccc(OC(C)=O)c(OC(C)=O)c2oc1=O | > 100 µM | > 100 | – | > 100 | 73.9 | > 100 µM | > 100 | > 100 | > 100 | 94.3 | 71.7 | 57.3 | > 100 | 88.6 | > 100 | 90 | > 100 | – | – |
| CC(=O)N1C(C(=O)NN2CCOCC2)CSC1c1ccccc1 (configuration not stated) | > 100 µM | > 100 | – | > 100 | > 100 | > 100 µM | > 100 | > 100 | > 100 | > 100 | > 100 | > 100 | > 100 | > 100 | > 100 | > 100 | > 100 | – | – |
| O=C(O)c1cc2ccccc2c(Cc2c(O)c(C(=O)O)cc3ccccc23)c1O | > 100 µM | – | > 100 | > 100 | > 100 | > 100 µM | > 100 | > 100 | > 100 | > 100 | > 100 | > 100 | > 100 | – | > 100 | > 100 | > 100 | – | – |
| COc1cc(C2CC(C)(N3CCOCC3)Oc3cc4c(cc32)OCO4)cc(OC)c1OC (configuration not stated) | > 100 µM | – | – | > 100 | > 100 | > 100 µM | > 100 | 0.439 | > 100 | > 88.4 | > 100 | > 100 | 0.151 | – | > 100 | > 100 | – | – | – |
| CCOC(=O)COc1cc(-c2ccccc2F)nc2cc3c(cc12)OCO3 | > 100 µM | > 100 | – | > 100 | > 100 | > 100 µM | > 100 | > 100 | 84.5 | > 100 | > 100 | > 100 | > 100 | > 100 | > 100 | > 100 | – | – | – |

Source: PubChem BioAssay (NCI)
